Results as given in US20200188511A1, “METHODS OF IMPROVING EFFICACY OF ALLERGY VACCINES” (ANERGIS S.A., priority 2018, published 2020).

B1: Aller T2: COP peptide of 71 amino acids, aa 48-118 of Bet v 1 (SEQ ID 4) (peptide)
chain: NGGPGTIKKISFPEGFPFKYVKDRVDEVDHTNFKYNYSVIEGGPIGDTLEKISNEIKIVATPDGGSILKIS

Tested on: Bet v 1-specific IgE
Test: In vitro IgE binding (IgE ELISA competition and basophil degranulation assays)
Set-up: species or system human
Protocol: These experiments are necessary to ensure that the presentation of the peptides in the Bet v1 COP-Virosomes is not associated with the appearance of unexpected binding to pre-existing Bet v 1-specific IgE.
Bet v 1 at 2 μg/ml was coated overnight on 96-well Nunc Maxisorp® immunoplates (Thermo Fisher Scientific Inc., Wohlen, Switzerland). Sera from birch allergic persons were diluted either ten-fold or twenty-fold (depending on Bet v 1 specific IgE content) and added to serial dilutions of either Bet v 1 or COPs virosomes and incubated for 15 minutes on ice. Serial dilutions of Bet v 1 and COPs virosomes ranged from 10^−6 M to 10^−12 M, final concentration. Serum antigen mixtures were then added to the ELISA plates.

IgE binding	Molecule
absence of detectable IgE binding	Aller T1: COP peptide of 49 amino acids, aa 2-50 of Bet v 1 (SEQ ID 4) (GVFNYETETTSVIPAARLFKAFILDGDNLFPKVAPQAISSVENIEGNGG)
absence of detectable IgE binding	Aller T3: COP peptide of 55 amino acids, aa 106-160 of Bet v 1 (SEQ ID 4) (VATPDGGSILKISNKYHTKGDHEVKAEQVKASKEMGETLLRAVESYLLAHSDAYN)
absence of detectable IgE binding	B1
